These results are taken from patent publication US10124033B2, “Peptides and methods of use” (BAXALTA INCORPORATED, priority 2014, dated 2018).

Each structure is given as a SMILES string. Like-named read-outs stand apart in the source and are kept apart here. Residues, ends and D or L forms follow the SMILES beside them.

The target in assay [1] is T1, Protein S/APC cofactor activity (Homo sapiens, UniProt P07225).
T1 construct: host or cells: plasma
T1 sequence (P07225 41-676 limits assumed): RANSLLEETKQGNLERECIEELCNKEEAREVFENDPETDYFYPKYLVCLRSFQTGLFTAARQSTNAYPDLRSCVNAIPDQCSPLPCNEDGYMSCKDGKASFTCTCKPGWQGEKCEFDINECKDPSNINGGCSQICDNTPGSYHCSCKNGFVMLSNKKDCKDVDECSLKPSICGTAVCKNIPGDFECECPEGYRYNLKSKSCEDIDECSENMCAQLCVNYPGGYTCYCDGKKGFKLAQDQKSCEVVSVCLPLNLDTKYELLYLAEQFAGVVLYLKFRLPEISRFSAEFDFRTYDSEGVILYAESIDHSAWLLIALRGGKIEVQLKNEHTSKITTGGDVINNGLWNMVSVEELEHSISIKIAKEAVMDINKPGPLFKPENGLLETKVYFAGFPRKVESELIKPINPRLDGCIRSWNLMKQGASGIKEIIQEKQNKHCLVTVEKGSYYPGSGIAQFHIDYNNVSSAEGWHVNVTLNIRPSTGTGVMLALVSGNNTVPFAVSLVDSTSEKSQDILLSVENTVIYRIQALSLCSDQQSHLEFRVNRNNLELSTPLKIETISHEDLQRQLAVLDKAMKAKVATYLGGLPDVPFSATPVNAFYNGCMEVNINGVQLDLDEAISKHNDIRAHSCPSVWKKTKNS
Kind of assay: CAT assay: Protein S/APC-dependent thrombin generation in FVIII-inhibited plasma. The assay is classed as biochemical. On the procedure: Peptides also were tested for improvement of Protein S/APC-dependent thrombin generation in hemophilic plasma using a CAT assay. Protein S enhances the anticoagulation of APC in plasma. The CAT assay quantifies the effect of Protein S on APC-mediated thrombin generation initiated via the extrinsic coagulation pathway (Nicolaes, Blood Coagul. Fibrinolysis, 8:28 (1997)). APC (35 nM) and Protein S (25 nM) was added to Protein 5-depleted plasma, and plasma samples were incubated with high titer heat inactivated anti-human FVIII plasma raised in goat (4490 BU/ml; Baxter BioScience, Vienna, Austria; 50 BU/ml final plasma concentration). Thrombin formation in plasma was followed by calibrated automated thrombography (CAT) in a Fluoroskan Ascent® reader (Thermo Labsystems, Helsinki, Finland) and quantified via the thrombin peak-height. Thrombin generation was determined at high tissue factor (TF) concentration in the absence and in the presence of APC at a concentration that reduces the peak height to ˜20%. The inhibitory effect of peptides described herein on the APC cofactor activity of Protein S (PS) in plasma was measured in FVIII-inhibited pooled normal plasma supplemented with APC. Complete (100%) Protein S/APC inhibition is the height of the thrombin peak without addition of APC. Lack of (0%) PS/APC inhibition correlates to the thrombin peak-height value with a certain amount of APC. Peptides were ranked by their normalized values in comparison to the mean of wild-type controls including SD at two defined peptide concentrations (EC50 and EC90).
Exemplary conditions for the CAT assay are as follows. Protein S-depleted plasma was supplemented with 35 nM APC and […]. Stock APC was diluted with 10 pM TF and 15 μM PL. Lyophilized peptides were dissolved in 100% DMSO to a 5 mM stock concentration and further diluted with HNABSA5-buffer+0.1% Tween80. […] In a 96 well Immulon 2HB (transparent), U-bottom (ThermoElectron) plate was mixed 80 μl plasma (+CTI+Z994-5), 10 μl peptide dilution, and 10 μl APC-TF-PL-MIX or Calibrator. Thrombin generation was initiated by dispensing 20 μL of FluCa reagent containing fluorogenic substrate and HEPES-buffered CaCl2 (100 mM) into each well. Fluorescence intensity was recorded at 37° C. using the Fluoroskan Ascent® reader (filters 390 nm excitation and 460 nm emission). The parameters of the resulting thrombin generation curves were calculated using the Thrombinoscope™ software (Thrombinoscope) and thrombin calibrator to correct for inner filter and substrate consumption effects (Hemker, Pathophysiol Haemost Thromb, 33: 415 (2003)).

The target in another assay is T2, Protein S (Homo sapiens, UniProt P07225).
T2 sequence (P07225 41-676 limits assumed): T1 sequence (P07225 41-676 limits assumed)
Put plainly: competition (IC50) ELISA with biotinylated tracer peptide JBS0684. The assay is classed as binding. As for the experimental part: The new peptide candidates were synthesized (purity >60%) and screened for affinity in a competitive binding assay (ELISA IC50) and activity in a thrombin generation assay (CAT). The competition (IC50) ELISA was performed using biotinylated tracer peptide JBS0684 to compete for Protein S-binding with candidate peptides. Peptides that compete with the tracer bind the same region of Protein S as the tracer (and each other). Ninety-six well PolySorp plates (Nunc) were coated with 3 μg/mL Protein S in coating buffer (15 mM Na2CO3, 35 mM NaHCO3, pH 9.6) over night. Plates were washed three times with wash buffer (HNaT: 175 mM NaCl, 25 mM HEPES, 5 mM CaCl2, 0.1% Tween 80, pH 7.35), and blocked with 100 μl 2% yeast extract in HNaT for at least 1 hour. Plates were then washed three times with HNaT. JBS0684 was applied at a concentration corresponding to the EC90 value determined in the binding ELISA. A competitor stock solution of peptide (10 mM) was diluted 1/33.3 in HNaT without HSA, and a serial ⅓ dilution was prepared with HNaT with 3% DMSO. The dilution was further diluted with the biotinylated tracer peptide in a ratio of 1:6 (20 μl competitor dilution and 100 μl tracer peptide). The mixture of competitor and tracer peptide was applied to the Protein S-coated microtiter plate and incubated for 1.5 hours. The plates were washed three times with HNaT. Peptide-Protein S binding was detected by applying HRP-conjugated streptavidin to the microtiter plate, incubating the mixture for one hour, washing the plate three times with HNaT, applying TMB (3,3′5,5′-Tetramethylbenzidin), and detecting the subsequent chromogenic conversion of TMB by HRP. IC50 measurements of peptides are provided herein (see, e.g., Table 3).

In assay [2] the target is T3, human full-length Protein S (Homo sapiens, UniProt P07225).
T3 construct: using human full-length Protein S and human GAS6
T3 sequence (P07225 41-676 limits assumed): T1 sequence (P07225 41-676 limits assumed)
Put plainly: Biacore (surface plasmon resonance) on immobilized Protein S. The note with it: for koff: read-out: koff; for kon: read-out: kon. In kind it is binding. As for the experimental part:
Protein S affinity also was determined via Biacore (Biacore 3000 or Biacore T200) using human full-length Protein S and human GAS6. Briefly, 1000 RU of Protein S or GAS6 were immobilized on a CMS chip. In order to probe the kinetics of Protein S binding peptides to Protein S, the peptides were injected at various concentrations in a HBS-buffer containing 3 mM CaCl2 and 1% DMSO to the flow cell and allowed to interact with the immobilized proteins on the sensor chip. The chip could be regenerated with 4 M MgCl2 in HBS-buffer. Sensorgrams were fitted to a Langmuir binding model for the determination of kon and koff and the calculation of KD. Peptides were tested on their specificity to Protein S with peptide binding studies on the anti-target GAS6.
Background: SPR reads the build-up and loss of mass on a sensor chip optically.

Where [3] appears, read: His to Leu substitution at position 3.

With `CC(=O)N[C@H](C(=O)NCC(=O)N[C@@H](CC(C)C)C(=O)N[C@H](C(=O)N[C@@H](CO)C(=O)N[C@@H](C)C(=O)NCC(=O)N[C@@H](Cc1c[nH]c2ccccc12)C(=O)N[C@@H](Cc1ccc(O)cc1)C(=O)N[C@@H](CC(=O)O)C(=O)N[C@@H](Cc1ccc(O)cc1)C(=O)N[C@@H](CC(N)=O)C(=O)N[C@@H](Cc1ccccc1)C(=O)N[C@@H](CC(=O)O)C(=O)N[C@@H](Cc1c[nH]cn1)C(=O)N[C@@H](Cc1ccc(O)cc1)C(=O)N[C@@H](CCCNC(=N)N)C(=O)N[C@@H](CCC(=O)O)C(=O)N[C@@H](Cc1ccccc1)C(=O)N[C@H](C(N)=O)[C@@H](C)O)C(C)C)[C@@H](C)O` [JBS2572] (Ac-TGLVSAGWYDYNFDHYREFT-NH2), the “increase of activity in the CAT-assay compared to JBS2512” value in assay [1] (setting [3]) was 1.6 fold. Besides, in assay [1] (hemophilic plasma), the “PS/APC-dependent thrombin generation in hemophilic plasma” value is listed as “improved”. Besides, the “increase of affinity compared to JBS2512” value at Protein S (setting [3]) was 1.6 fold. In addition, the IC50 (as a rule, the concentration that gives 50% inhibition) at Protein S (competition ELISA, tracer JBS0684, re-synthesized peptides) was found to be 2.5 ± 0.3 nM. The Kd (usually the free concentration of one partner at which half of the binding sites on the other are occupied at equilibrium, for simple one-to-one binding) came to 6 nM in assay [2] (25° C., read-out: KD for binding to Protein S); 4 nM in assay [2] (37° C., read-out: KD); 4 nM in assay [2] (Biacore, affinity-matured and modified peptides, read-out: KD). Also, the off-rate constant (koff) (usually the rate constant with which the complex falls apart) in assay [2] (25° C.) amounted to 0.00148 s⁻¹; in assay [2] (37° C.), 0.00431 s⁻¹. The results for the kon in assay [2] (25° C.) and in assay [2] (37° C.) were 248000 M⁻¹ s⁻¹ and 1.14e+06 M⁻¹ s⁻¹, respectively.
